Experimental data reported in article PMC9834240, “Senescent cells perturb intestinal stem cell differentiation through Ptk7 induced noncanonical Wnt and YAP signaling” (Nature Communications, 2023).
Several values for one entry are separate records, joined by “and”; a condition that tells them apart may be missing. Equal values may be shown once.

Key:
[1] = tested on: MEFs; assay: SA-β-Gal staining; type: cell-based, mouse; conditions: X-ray irradiation or doxorubicin (250 nM, 3 days)
Protocol: Staining was performed with the Senescence Detection Kit (Abcam, #ab65351) following the manufacturer’s protocol. Briefly, MEFs were fixed for 15 min with 1× fixation solution, washed with PBS, then stained overnight at 37 °C in 1× staining solution. Brightfield images were captured on the Zeiss Axio Imager M2 microscope.

[2] = tested on: soluble Ptk7 (sPtk7) shed by MEFs; assay: Western blot for sPtk7 in conditioned media; type: cell-based, mouse
Protocol: Twenty-four hours before collecting conditioned media (CM), MEFs were washed with serum-free DMEM twice, and serum-free DMEM was added. After 24 h in serum-free DMEM, this CM was collected, filtered using Steriflip filters (Millipore, #SE1M179M6) to remove cell debris, and concentrated using centrifugal filter units (Amicon ultra-15 centricon; Millipore, # UFC900324). To collect CM without sPtk7, TAPI-1 (Millipore, #59053) or GM6001 (Sigma-Aldrich, #364206) containing serum-free DMEM instead of serum-free DMEM was added to the cells. To inhibit Wnt secretion, IWP-L6 (Sigma-Aldrich, #504819) containing serum-free DMEM instead of serum-free DMEM was added to the cells. CM was filtered and dialyzed for 24–48 h to remove the inhibitors before concentration. Concentrated CM from equal numbers of MEFs was mixed with IntestiCult Organoid Growth Medium (Stem Cell Technologies, #06005) and added to the organoid cultures.
Conditioned media corresponding to the same number of cells were loaded for SDS–PAGE. Total cell and tissue lysates of mouse fibroblasts and intestine were prepared using RIPA lysis buffer (Thermo Fisher Scientific, #89900) with protease/phosphatase inhibitor (Thermo Fisher Scientific, #1861281). Protein concentration was measured with BCA protein assay kit (Thermo Fisher Scientific, #23227), and equal amount of proteins were loaded for SDS–PAGE. […]

[3] = tested on: cytosolic Ca2+ in mouse intestinal organoids; assay: live Ca2+ imaging of mouse intestinal organoids (GCaMP6f/tdTomato: baselined area under curve, peak number, height, width); type: cell-based; conditions: live organoids expressing GCaMP6f
Protocol: Z stacks were acquired every 10 s.
Z-stack images were converted to mean intensity projections and, where required; background was subtracted using a rolling ball algorithm. Segmentation was conducted on a max-projection over-time of the GCaMP6f channel using Cellpose’s pre-trained “Cytoplasm” classifier. Mean intensity traces were measured in each ROI over the time course in both the GCaMP6f and TdTomato channels using scikit-image[138]. Ca^2+ oscillation patterns were calculated in an unsupervised, automated manner using MATLAB. Mean intensity traces were smoothed using a Savitzky-Golay filter and peaks were identified using the “findpeaks” algorithm from the MATLAB Signal Processing Toolbox. Graphs for GCaMP6f/tdTomato fluorescence ratio, peak numbers, peak height, peak width and baselined area under the curve were generated using Python matplotlib and seaborn packages. Statistical analysis was performed using Python SciPy and scikit-post-hoc packages.

[4] = tested on: β-Catenin-dependent Wnt signaling (HEK293-TB cells); assay: TOPbrite dual-luciferase Wnt reporter assay; type: cell-based; conditions: SF.3e
Protocol: Generation of HEK293 cells stably expressing a TOPbrite firefly luciferase Wnt reporter and pRL-SV40 Renilla luciferase (HEK293-TB) was previously described. HEK293-TB cells were maintained in DMEM/F12 (50:50), supplemented with 10% FBS, 2 mM Glutamax (Gibco, #35050-061) and 40 μg/ml hygromycin (Cellgro, #30-240-CR). For the luciferase reporter assay, HEK293-TB cells were seeded in 96-well plates (Falcon, #353377). The next day, cells were treated with indicated Wnt ligands (50 ng/ml) or CM diluted in culture media. After 24 h, the firefly and Renilla luciferase activity was measured using Dual-Glo Luciferase Assay system (Promega, #E2940) on a Perkin Elmer EnVision multilabel reader. The ratios of firefly luminescence to Renilla luminescence were calculated and normalized to control samples that were not treated.

[5] = tested on: mouse intestinal organoids; assay: cystic organoid percentage, organoids treated with recombinant Wnt ligands (Wnt3a, Wnt5a, Wnt11); type: cell-based; conditions: for percentage of cystic organoids: Fig. 4e, individual mice, n = 3
Protocol: The jejunum part of the small intestine was removed, flushed with PBS, opened longitudinally, then cut into 0.5 cm pieces. The collected tissues were washed with ice cold PBS multiple times by vortexing and incubated in PBS containing 2.5 mM EDTA for 5 min at 37 °C. After gentle shaking and aspiration, tissues were incubated in PBS containing 5 mM EDTA for 7 min at 37 °C. Tissues were then washed with PBS to remove EDTA and vigorously shaken to release crypts. The released crypts were passed through 70 μm strainers, washed with PBS, and pelleted by centrifugation at 200 × g. Resuspended crypts were mixed with Matrigel (Corning, #356231; Lot#8218007) and pipetted into culture plates. After mixture of crypts and Matrigel solidified, IntestiCult Organoid Growth Medium (Stem Cell Technologies, #06005; Lots #1000021927, #1000034230, #1000037372) was added. Seven days after seeding, organoids were resuspended in dissociation buffer (Gentle Cell Dissociation Reagent; Stem Cell Technologies, #07174), dissociated by pipetting, and seeded for experiments.
3-4 biological replicates of organoids from different mice were used per condition. Organoids were cultured in the indicated media, inhibitors, antibodies and/or recombinant proteins for 5 d and fixed in 4% formaldehyde in PBS. Organoids were imaged with a 4× Plan Fluor objective (NA: 0.13, Nikon) on a Nikon Ti-E inverted microscope equipped with a Neo scMOS camera (Andor, Oxford Instruments), a linear encoded automated stage (Applied Scientific Instrumentation), all run by NIS Elements software (Nikon). Organoids were imaged in brightfield and images covering the whole well were stitched and focused into one image projection with an extended depth of focus module (EDF; Nikon). One hundred to 200 organoids per replicate per condition were counted and used for quantification. The number of budding organoids in each condition was normalized by the number of budding organoids in untreated or DMSO treated controls to calculate cystic organoid percentage:1 Cysticorganoidpercentage=100×1−Numberofbuddingorganoidsfromexperiment/Numberofbuddingorganoidsfromcontrol

[6] = tested on: biotinylated Wnt5a; assay: ELISA binding to Wnt5a; design: species or system human/mouse (hmWnt5a); conditions: Wnt5a versus Wnt3a
Protocol: (§1) Proteins used in ELISAs were obtained from R&D Systems: PTK7-Fc (R&D Systems, #9799-TK), biotinylated Wnt3a (R&D Systems, #BT1324), biotinylated Wnt5a (R&D Systems, #BT645). […] Assay plates (384 Maxisorp plates, Nunc, # 464718) were prepared by incubation overnight with 30 µl/well Neutravidin (2 µg/ml, Thermo Fisher Scientific, #31055) in PBS at 4 °C. Plates were emptied and incubated with 100 µl/well of blocking buffer (PBS, 2% bovine serum albumin, 0.01% NaN3) for 1 h at room temperature with shaking. Blocking buffer was aspirated and plates were washed 8x with 70 µl/well of PBS-T. In parallel, bio-Wnt3a or bio-Wnt5a were incubated in helper plates (384 well plates, Nunc; #264574) with a dilution series of PTK7-Fc or FZD7-His in the presence or absence of FZD7-His as a competitor in assay diluent (PBS + 0.5 % BSA + 15 ppm ProClin 300 (Sigma-Aldrich, #48914-U) for 1 h at 4 °C. Protein mixtures (25 µl/well) were transferred from helper plates to 3 wells of assay plates (technical triplicates), and incubated for 1 h at 4 °C. Assay plates were aspirated and washed 8× with 70 µl/well of PBS-T. Binding was detected by 25 µl/well of anti-hIgG1-Fc-HRP (0.2 µg/ml, Thermo Fisher Scientific, #A-10648) or anti-His-tag-HRP (0.2 µg/ml, Abcam, #ab1187) in assay diluent, incubated for 1 h at 4 °C. […] Absorbance at 450 nm was recorded with a plate reader. […]

[7] = tested on: biotinylated Wnt3a; assay: ELISA binding to Wnt3a; design: species or system mouse; conditions: PTK7 with FZD7 CRD
Protocol: as §1

COc1cccc2c1C(=O)c1c(O)c3c(c(O)c1C2=O)C[C@@](O)(C(=O)CO)C[C@@H]3O[C@H]1C[C@H](N)[C@H](O)[C@H](C)O1 [doxorubicin]
senescence (SA-β-gal) [1]: confirmed senescence | levels of sPtk7 in conditioned media [2]: contained higher levels of sPtk7

Wnt3a [reference compound]
effect on cytosolic Ca2+ levels and oscillations [3]: decreased cytosolic Ca^2+ levels | TOPbrite dual-luciferase Wnt reporter activity ([4]; replicate 1): 83.0786 | TOPbrite dual-luciferase Wnt reporter activity ([4]; replicate 2): 67.4901 | TOPbrite dual-luciferase Wnt reporter activity ([4]; replicate 3): 77.6835 | TOPbrite dual-luciferase Wnt reporter activity ([4]; replicate 4): 73.6039 | percentage of cystic organoids ([5]; Wnt3a 25 ng/ml): 7.495% and 3.142% and 6.766% | percentage of cystic organoids ([5]; Wnt3a 50 ng/ml): 18.7879% and 6.422% and 6.8556% | percentage of cystic organoids ([5]; Wnt3a 100 ng/ml): 13.092% and 2.902% and 16.5461% | percentage of cystic organoids ([5]; Wnt3a 250 ng/ml): 21.7379% and 11.3578% and 13.1232% | percentage of cystic organoids ([5]; Wnt3a 500 ng/ml): 37.371% and 19.4444% and 31.0445% | induction of cystic organoids ([5]; recombinant Wnt ligand added to crypt cultures): dose-dependently increased organoids with cystic morphology

B1: sPtk7: soluble/shed N-terminal extracellular domain of Ptk7 (protein)
chain: AIVFIKQPSSQDALQGRRALLRCEVEAPGPVHVYWLLDGAPVQDTERRFAQGSSLSFAAVDRLQDSGTFQCVARDDVTGEEARSANASFNIKWIEAGPVVLKHPASEAEIQPQTQVTLRCHIDGHPRPTYQWFRDGTPLSDGQSNHTVSSKERNLTLRPAGPEHSGLYSCCAHSAFGQACSSQNFTLSIADESFARVVLAPQDVVVARYEEAMFHCQFSAQPPPSLQWLFEDETPITNRSRPPHLRRATVFANGSLLLTQVRPRNAGIYRCIGQGQRGPPIILEATLHLAEIEDMPLFEPRVFTAGSEERVTCLPPKGLPEPSVWWEHAGVRLPTHGRVYQKGHELVLANIAESDAGVYTCHAANLAGQRRQDVNITVATVPSWLKKPQDSQLEEGKPGYLDCLTQATPKPTVVWYRNQMLISEDSRFEVFKNGTLRINSVEVYDGTWYRCMSSTPAGSIEAQARVQVLEKLKFTPPPQPQQCMEFDKEATVPCSATGREKPTIKWERADGSSLPEWVTDNAGTLHFARVTRDDAGNYTCIASNGPQGQIRAHVQLTVAVFITFKVEPERTTVYQGHTALLQCEAQGDPKPLIQWKGKDRILDPTKLGPRMHIFQNGSLVIHDVAPEDSGRYTCIAGNSCNIKHTEAPLYVVDKPVPEESEGPGSPPPYKMIQT
modifications: left off: Fc (human IgG1, from the anti-hIgG1-Fc detection antibody), end not stated, kept
notes: soluble/shed N-terminal extracellular domain of Ptk7
effect on cytosolic Ca2+ levels and oscillations [3]: modulate cytosolic Ca^2+ oscillations | binding to Wnt3a and Wnt5a, relative affinity [6]: bound Wnt5a with higher affinity | competition for binding to Wnt3a or Wnt5a [7]: unaffected by a saturating amount of FZD7 CRD
